Data: patent EP4660195A1, “CRYSTALLINE FORMS OF AVATROMBOPAG MALEATE AND PREPARATION THEREOF” (NOUCOR HEALTH S.A., priority 2024, dated 2025)
Structures can show the parent of a compound that is named as a salt.

Tests used:
[1] = pH 1 to 11; cited from earlier work
[2] = Stability of screened solid forms with time; format: physicochemical
Method: Form C9 was only exclusively obtained using chloroform as a solvent, which solvent is not suitable for industrial manufacturing of a drug according to regulatory requirements. These solid forms are consequently not suitable for industrial manufacturing of a drug.
Amorphous Avatrombopag maleate (200 mg) was suspended in methanol (10 mL) at room temperature, and stirred for 15 hours, filtered and dried in the air. […] After 24 hours, the solid was analyzed by PXRD again - only form beta was observed. ^1H NMR analysis of said solid form indicated the presence of methanol in the crystalline form. In order to remove the methanol to obtain an anhydrous form, form beta was dried in vacuum for 2 hours at 70°C. After said desolvation step, crystalline forma alpha was obtained.

[3] = Hygroscopicity by Dynamic Vapor Sorption analysis; format: physicochemical; conditions: for gain of weight by absorption of water: 25°C
Method: Dynamic Vapor Sorption Analysis (DVS) were performed in a Mettler Toledo TGA / DSC 1 LF instrument equipped with a LF SDTA FRS2 sensor and coupled with a Modular Humidity Generator MHG 32. Data collection and evaluation was done with STARe software. Measurement conditions: The samples were analysed following a humidity cycle from 20%RH up to 80%RH, down to 3%RH, up to 90 and down to 3%RH in 10% steps of 30 minutes at 25°C. Sample preparation: Approximately 5-10 mg of sample were weighed (using a MX5 Mettler Toledo microbalance) into 150 µL platinum crucibles without lid.

[4] = Thermal stability at 90 °C for 24 hours, PXRD and 1H NMR; format: physicochemical; conditions: open or closed vial
Excerpt: (§1) The Powder X-Ray diffraction (PXRD) patterns were acquired on a Bruker D8 Advance Series 2Theta/Theta powder diffraction system using CuKα1-radiation operated at 40 kV and 40 mA in transmission geometry. The system is equipped with a VÅNTEC-1 single photon counting PSD, a Germanium monochromator, a ninety positions auto changer sample stage, fixed divergence slits and a radial soller. Programs used: Data collection with DIFFRAC plus XRD Commander V.2.5.1, and evaluation with High Score Plus 4.9 (Malvern PANalytical B.V.). Measurement conditions: The samples were measured in a range from 4 to 40° in 2θ in a 6 or 30 minutes measurement using an angular step of 0.05° and a time per step of […]. Sample preparation: 20 mg of non-manipulated sample were prepared in standard sample holders using two foils of polyacetate
Proton nuclear magnetic resonance analyses (^1H NMR spectroscopy) were recorded in a Bruker 300 NMR spectrometer, equipped with a z gradient 5 mm BBO (Broadband Observe) probe with ATM and an automatic autosampler. Measurement conditions: The samples were analysed at room temperature. Sample preparation: Approximately 2-5 mg of sample were dissolved in 0.7 mL of deuterated solvent (dimethylsulfoxide-d6).

[5] = Solid form stability in climatic chamber at 40°C and 75% RH, monitored by PXRD; format: physicochemical; conditions: 40°C and 75% RH, 1, 5 and 13 days
Excerpt: as §1
A sample of Crystalline Form Alpha of Avatrombopag maleate was stored for 13 days in a climatic chamber at 40°C and 75% RH, and the solid form was monitored by PXRD.

[6] = in vivo; cited from earlier work

In the case of `O=C(Nc1nc(-c2cc(Cl)cs2)c(N2CCN(C3CCCCC3)CC2)s1)c1cnc(N2CCC(C(=O)O)CC2)c(Cl)c1.O=C(O)/C=C\C(=O)O` [Avatrombopag maleate], the aqueous solubility [1] is given as “practically insoluble”.
For `O=C(Nc1nc(-c2cc(Cl)cs2)c(N2CCN(C3CCCCC3)CC2)s1)c1cnc(N2CCC(C(=O)O)CC2)c(Cl)c1.O=C(O)/C=C\C(=O)O` [Form C22, Avatrombopag maleate], the “stability of the solid form with time” value ([2]; listed as C22) was “lose crystallinity with time”.
With `O=C(Nc1nc(-c2cc(Cl)cs2)c(N2CCN(C3CCCCC3)CC2)s1)c1cnc(N2CCC(C(=O)O)CC2)c(Cl)c1` [Form alpha, Avatrombopag maleate] the “solid form (PXRD) before and after DVS analysis” value ([3]; exposure to relative humidity as high as 90%) was “preserves its solid form”, the “gain of weight by absorption of water” value ([3]; relative humidity of 70%) was “below 0.3%” and the “gain of weight by absorption of water” value ([3]; relative humidity of 80%) was “below 0.4%”. The “gain of weight by absorption of water” value ([3]; relative humidity of 90%) was “below 0.7%”, the “solid form (PXRD, 1H NMR) after heating” value [4] was “preserves its solid form” and the “solid form (PXRD) after storage” value [5] was “preserves its solid form”.
With `O=C(Nc1nc(-c2cc(Cl)cs2)c(N2CCN(C3CCCCC3)CC2)s1)c1cnc(N2CCC(C(=O)O)CC2)c(Cl)c1.O=C(O)/C=C\C(=O)O` [Form C5, Avatrombopag maleate] the “stability of the solid form with time” value ([2]; listed as C5) was “lose crystallinity with time”.
With `O=C(Nc1nc(-c2cc(Cl)cs2)c(N2CCN(C3CCCCC3)CC2)s1)c1cnc(N2CCC(C(=O)O)CC2)c(Cl)c1.O=C(O)/C=C\C(=O)O` [Form gamma, Avatrombopag maleate] the “stability of the solid form with time” value ([2]; listed as form gamma) was “spontaneously converted into form beta with time”.
For `O=C(Nc1nc(-c2cc(Cl)cs2)c(N2CCN(C3CCCCC3)CC2)s1)c1cnc(N2CCC(C(=O)O)CC2)c(Cl)c1` [Form C, Avatrombopag maleate], the oral absorption [6] is listed as “excellent oral absorption”.
In the case of `O=C(Nc1nc(-c2cc(Cl)cs2)c(N2CCN(C3CCCCC3)CC2)s1)c1cnc(N2CCC(C(=O)O)CC2)c(Cl)c1.O=C(O)/C=C\C(=O)O` [Form C11, Avatrombopag maleate], the “stability of the solid form with time” value ([2]; listed as C11) is reported as “unstable”.
In the case of `O=C(Nc1nc(-c2cc(Cl)cs2)c(N2CCN(C3CCCCC3)CC2)s1)c1cnc(N2CCC(C(=O)O)CC2)c(Cl)c1.O=C(O)/C=C\C(=O)O` [Form A, Avatrombopag maleate], the oral absorption [6] is given as “excellent oral absorption”.
For `O=C(Nc1nc(-c2cc(Cl)cs2)c(N2CCN(C3CCCCC3)CC2)s1)c1cnc(N2CCC(C(=O)O)CC2)c(Cl)c1` [Form B, Avatrombopag maleate], the oral absorption [6] is given as “inferior oral absorption”.
